# Source: patent US7498343B2, “Mycobacterial inhibitors” (priority 2002, dated 2009)
# Where two headings read alike, the source gives them in different places.
# Experiments:
# [1] = system: M. Smegmatis ATCC607; assay: In-vitro method for testing compounds for anti-bacterial activity against strain M. smegmatis ATCC607 (Alamar Blue growth inhibition); format: cell-based; details: M. smegmatis ATCC607; pIC50 = -logIC50, IC50 in M, 50% inhibitory concentration for bacterial growth; 48 hours incubation
# Summary of the method: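 About 250 CFU/well M. smegmatis ATCC607 in Mueller-Hinton broth exposed to five-fold serial compound dilutions, 48 h at 37 °C, humidified 5% CO2. Growth read by Alamar Blue fluorescence (ex 530/em 590 nm) after 2 h further incubation; % growth inhibition calculated.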
# [2] = system: Mycobacterium tuberculosis (strain H37RV); assay: In-vitro method for testing compounds against M. tuberculosis (resazurin growth inhibition, MIC); format: cell-based; details: MIC data representing IC90's, 7 days incubation, resazurin fluorescence
# [3] = Mycobacterium tuberculosis, H37RV, 168 h, read-out: MIC
Compound,pIC50 [1],MIC [2] [microgram/ml],"MIC [2, 3] [µg/mL]"
"COc1nc2cc(C)c(C)cc2cc1C(c1ccccc1)C(O)(CCN(C)C)c1cccc2ccccc12 (single isomer, unassigned) [Compound 229]",7.1,40.09,
"COc1nc2ccc(Br)cc2cc1C(c1ccccc1)C(O)(CCN1CCN(C)CC1)c1ccc2cc(Br)ccc2c1 (single isomer, unassigned) [Compound 153]",5.3,54.77,
"COc1nc2ccc(Br)cc2cc1C(c1ccc(Cl)cc1)C(O)(CCN(C)C)c1ccccc1 (single isomer, unassigned) [Compound 37]",7.9,0.34,
"COc1ccc2nc(OC)c(C(c3ccccc3)C(O)(CCN(C)C)c3ccccc3)cc2c1 (single isomer, unassigned) [Compound 34]",5.1,45.66,
"COc1ccc2nc(OC)c(C(c3ccccc3)C(O)(CCN(C)C)c3cccc(F)c3)cc2c1 (single isomer, unassigned) [Compound 134]",6.5,7.52,
COc1nc2ccc(Br)cc2cc1C(c1ccccc1)C(O)(CCN1CCCC1)c1ccc2ccccc2c1 (stereo not drawn) [Compound 170],5.6,,46.2
"COc1nc2ccc(Br)cc2cc1C(c1ccccc1)C(O)(CCN1CCOCC1)c1ccc2cc(Br)ccc2c1 (single isomer, unassigned) [Compound 178]",4.5,67.65,
COc1nc2ccc(Br)cc2cc1C(c1ccccc1)C(O)(CCN(C)C)c1cc(F)cc(F)c1 (stereo not drawn) [Compound 117],6.7,1.71,
"COc1nc2ccccc2cc1C(c1ccccc1)C(O)(CCN(C)C)c1ccccc1 (single isomer, unassigned) [Compound 41]",5.9,8.51,
COc1nc2ccc(Br)cc2cc1C(c1ccccc1)C(O)(CCN(C)C)c1cc(F)ccc1F (stereo not drawn) [Compound 67],8.6,0.34,
"COc1nc2cc(Br)ccc2cc1C(c1ccccc1)C(O)(CCN(C)C)c1cccc2ccccc12 (single isomer, unassigned) [Compound 217]",6.9,44.13,
COc1nc2ccc(Br)cc2cc1C(c1ccc(F)cc1)C(O)(CCN(C)C)c1cccc2ccccc12 (racemic) [Compound 205],7.2,4.56,
COc1nc2ccc(-c3ccccc3)cc2cc1C(c1ccccc1)C(O)(CCN(C)C)c1cccc2ccccc12 (racemic) [Compound 84],7.0,8.76,
"COc1nc2c(C)cc(Br)cc2cc1C(c1ccccc1)C(O)(CCN(C)C)c1cccc(F)c1 (single isomer, unassigned) [Compound 219]",5.8,42.69,
"COc1nc2cc(C)c(Br)cc2cc1C(c1ccccc1)C(O)(CCN(C)C)c1cccc(F)c1 (single isomer, unassigned) [Compound 215]",6.2,8.52,
"COc1nc2ccc(Br)cc2cc1C(c1ccccc1)C(O)(CCCN1CCCC1)c1ccc2ccccc2c1 (single isomer, unassigned) [Compound 132]",4.4,47.31,
COc1nc2ccc(C)cc2cc1C(c1ccccc1)C(O)(CCN(C)C)c1cccc2ccccc12 (racemic) [Compound 82],7.1,3.90,
"COc1nc2ccc(Br)cc2cc1C(c1ccccc1)C(O)(CCCN1CCOCC1)c1cccc2ccccc12 (single isomer, unassigned) [Compound 210]",6.1,61.16,
"COc1nc2ccc(Br)cc2cc1C(c1ccccc1)C(O)(CCN1CCN(c2ncccn2)CC1)c1ccc2ccccc2c1 (single isomer, unassigned) [Compound 200]",4.9,67.47,
COc1nc2ccc(Br)cc2cc1C(c1ccccc1)C(O)(CCc1ccccc1)CCN(C)C (racemic) [Compound 95],6.9,16.87,
"COc1nc2ccc(Br)cc2cc1C(c1ccccc1)C(O)(CCN(C)C)c1ccsc1 (single isomer, unassigned) [Compound 25]",5.2,20.36,
CSc1nc2ccc(Br)cc2cc1C(c1ccccc1)C(O)(CCN(C)C)c1cccc2ccccc12 (racemic) [Compound 88],6.8,45.40,
COc1nc2ccc(Br)cc2cc1C(c1ccccc1)C(O)(CCN(C)C)c1ccc(C#N)cc1 (racemic) [Compound 81],5.4,42.14,
"CSc1nc2ccc(Br)cc2cc1C(c1ccccc1)C(O)(CCN(C)C)c1ccccc1 (single isomer, unassigned) [Compound 33]",6.0,8.27,

Compound,pIC50 [1],MIC [2] [microgram/ml],"MIC [2, 3] [µg/mL]"
COc1nc2ccc(Br)cc2cc1C(c1ccccc1)C(O)(CCN1CCCCC1)c1cccc2ccccc12 (stereo not drawn) [Compound 145],5.3,,59.6
"COc1nc2ccc(Br)cc2cc1C(c1ccccc1)C(O)(CC[N+](C)(C)C)c1cccc2ccccc12.[I-] (single isomer, unassigned) [Compound 102]",6.5,2.21,
COc1nc2ccc(Br)cc2cc1C(c1ccccc1)C(O)(CCN1CCCC1)c1ccc2ccccc2c1 (stereo not drawn) [Compound 171],4.3,46.19,
COc1nc2ccccc2cc1C(c1ccccc1)C(O)(CCN(C)C)c1cccc2ccccc12 (racemic) [Compound 91],7.5,1.51,
"COc1nc2ccc(Br)cc2cc1C(c1ccccc1)C(O)(CCCN1CCOCC1)c1ccc2ccccc2c1 (single isomer, unassigned) [Compound 198]",4.3,61.16,
COc1nc2ccc(Br)cc2cc1C(c1ccccc1)C(O)(CCN1CCCCC1)c1ccccc1 (stereo not drawn) [Compound 47],6.5,,8.65
COc1nc2ccc(Br)cc2cc1C(c1ccccc1)C(O)(CCN(C)C)c1cc(F)ccc1F (stereo not drawn) [Compound 110],8.5,0.34,
CCN(C)CCC(O)(c1cccc2ccccc12)C(c1ccccc1)c1cc2cc(Br)ccc2nc1OC (stereo not drawn) [Compound 147],7.4,11.36,
"CN(C)CCC(O)(c1cccc2ccccc12)C(c1ccccc1)c1cc2cc(Br)ccc2[nH]c1=O (single isomer, unassigned) [Compound 138]",6.6,8.58,
"CSc1nc2ccc(Br)cc2cc1C(c1ccccc1)C(O)(CCN(C)C)c1ccccc1 (single isomer, unassigned) [Compound 32]",7.4,0.33,
"COc1nc2cc(C)c(Br)cc2cc1C(c1ccccc1)C(O)(CCN(C)C)c1cccc2ccccc12 (single isomer, unassigned) [Compound 226]",5.5,9.03,
COc1nc2ccc(Br)cc2cc1C(c1ccccc1)C(O)(CCN(C)C)c1ccc2c(c1)OCCO2 (racemic) [Compound 77],7.2,8.93,
COc1nc2ccc(Br)cc2cc1C(c1ccccc1)C(O)(CCn1ccnc1)c1ccccc1 (stereo not drawn) [Compound 50],5.0,52.85,
COc1nc2ccc(Br)cc2cc1C(c1ccccc1)C(O)(CCN(C)C)c1cc(F)ccc1F (stereo not drawn) [Compound 111],6.4,1.71,
COc1nc2ccc(Br)cc2cc1C(c1ccccc1)C(O)(CCN(C)C)c1cccc(F)c1 (stereo not drawn) [Compound 39],6.1,8.30,
"COc1nc2cccc(Br)c2cc1C(c1ccccc1)C(O)(CCN(C)C)c1cccc2ccccc12 (single isomer, unassigned) [Compound 224]",4.9,44.13,
COc1nc2ccc(Br)cc2cc1C(c1ccccc1)C(O)(CCN(C)C)c1cccnc1 (racemic) [Compound 87],5.0,40.23,
"COc1nc2ccc(Br)cc2cc1C(c1ccccc1)C(O)(CCN(C)C)c1ccc(Cl)cc1 (single isomer, unassigned) [Compound 16]",6.8,0.34,
"COc1nc2ccc(Br)cc2cc1C(c1ccccc1)C(O)(CCN(C)C)c1ccc(F)cc1 (single isomer, unassigned) [Compound 181]",6.9,8.30,
"COc1ccc2nc(OC)c(C(c3ccccc3)C(O)(CCN(C)C)c3cccc(F)c3)cc2c1 (single isomer, unassigned) [Compound 135]",7.4,1.50,
"COc1nc2ccc(Br)cc2cc1C(c1ccccc1)C(O)(CCN1CCCC1)c1ccc2cc(Br)ccc2c1 (single isomer, unassigned) [Compound 157]",5.6,52.46,
"COc1nc2ccc(Br)cc2cc1C(c1ccccc1)C(O)(CCN1CCOCC1)c1ccc2ccccc2c1 (single isomer, unassigned) [Compound 140]",5.8,59.76,
"COCCOc1nc2ccc(Br)cc2cc1C(c1ccccc1)C(O)(CCN(C)C)c1cccc(F)c1 (single isomer, unassigned) [Compound 164]",7.9,0.36,
COc1nc2ccc(Br)cc2cc1C(c1ccccc1)C(O)(CCN(C)C)c1ccccc1F (racemic) [Compound 70],5.8,52.35,
